Measurements published in US9139502B2, “Use of an urushiol compound in preparation of pharmaceutical compositions for inhibiting Smad3 phosphorylation” (Southern Hospital, Southern Medical University, priority 2013, dated 2015).

Key:
Smad4 [1] = experiment: Western blot of Smad4 expression in UUO kidneys; type: in vivo, rat; conditions: UUO rats, GQ-5 40 mg/kg daily i.p. right after UUO, sacrificed day 14
Protocol: (§1) Male Sprague-Dawley rats with body weight 200 to 250 g were randomized into 3 groups (n=6 in each group): (1) sham operated rats; (2) UUO rats; (3) UUO+GQ-5 rats.
(§2) GQ-5 was dissolved in 5% propylene glycol.
(§3) (3) UUO+GQ-5 rats: daily intraperitoneal injection of GQ-5 (40 mg/kg body weight) right after UUO;
(§4) UUO was performed using an established protocol as described. GQ-5 was dissolved in 5% propylene glycol. Rats were administrated with GQ-5 as described before. All the rats were sacrificed 14 days after UUO. Western blot analyses were performed to examine the Smad4, Smad7 expression and p38, PI3K, ERK phosphorylation.

Smad2 phosphorylation = Smad2 phosphorylation in kidney tissue of UUO rats (immunohistochemistry, Western blot); type: in vivo, rat; conditions: GQ-5 40 mg/kg daily i.p. right after or 7 days after UUO, sacrificed day 14
Protocol: Male Sprague-Dawley rats with body weight 200 to 250 g were randomized into 4 groups (n=6 in each group): (1) sham operated rats; (2) UUO rats; (3) UUO+GQ-5 d1 rats; (4) UUO+GQ-5 d7 rats.
as §2
(§5) (3) UUO+GQ-5 d1 rats: daily intraperitoneal injection of GQ-5 (40 mg/kg body weight) right after UUO;
(§6) (4) UUO+GQ-5 d7 rats: daily intraperitoneal injection of GQ-5 (40 mg/kg body weight) 7 days after UUO.
as §4, with “UUO. Immunohistochemical staining and” for “UUO.”, “Smad3” for “Smad4, Smad7 expression”, “Smad2 phosphorylation in kidney tissue.” for “p38, PI3K, ERK phosphorylation.”

collagen I [2] = experiment: Western blot of TGF-β1-induced collagen I protein in vitro; type: cell-based, rat; conditions: NRK 52E and NRK 49F cells, GQ-5 0.1-2.5 μM pre-treated 1 h, TGF-β1 10 ng/ml 48 h
Protocol: NRK52E and NRK49F cells were cultured in DMEM-Ham's medium supplemented with 10% fetal bovine serum. The cells reached at approximately 50% confluence were used for in vitro experiments. Cells were serum-starved for 12 h, and randomized into 6 groups: (1) Controls; (2) GQ-5 only; (3) TGF-β1 only; (4) TGF-β1+GQ-5 0.1 μM; (5) TGF-β1+GQ-5 0.5 μM; (6) TGF-β1+GQ-5 2.5 μM
(2) GQ-5 only: pre-treated with GQ-5 (2.5 μM) for 1 h, followed with DMEM for 48 h
(3) TGF-β1 only: pre-treated with DMSO for 1 h, followed with TGF-β1 (10 ng/ml) for 48 h
(4) TGF-β1+GQ-5 0.1 μM: pre-treated with GQ-5 (0.1 μM) for 1 h, followed with TGF-β1 (10 ng/ml) for 48 h
(5) TGF-β1+GQ-5 0.5 μM: pre-treated with GQ-5 (0.5 μM) for 1 h, followed with TGF-β1 (10 ng/ml) for 48 h
(6) TGF-β1+GQ-5 2.5 μM: pre-treated with GQ-5 (2.5 μM) for 1 h, followed with TGF-β1 (10 ng/ml) for 48 h
GQ-5 was dissolved in DMSO. Cells were treated as described. Cells lysates were immunebloted with antibodies against α-SMA, collagen I and fibronectin.

[3] = target: interaction of Smad3 with TβRI (Rattus norvegicus, UniProt P84025); experiment: Immunoprecipitation of Smad3 with TβRI in UUO kidneys; type: in vivo; set-up: from tissue; host or cells: kidney of UUO Sprague-Dawley rats; conditions: GQ-5 40 mg/kg daily i.p. right after UUO, sacrificed day 14
Protocol: as §1, §2, §3
as §4, with “Immunoprecipitation” for “Western blot”, “interaction among TβRI, TβRII, Smad3” for “Smad4, Smad7 expression”, “Smad2.” for “p38, PI3K, ERK phosphorylation.”

collagen I [4] = experiment: Collagen I expression in UUO kidney tissue (real-time PCR, immunohistochemistry, Western blot); type: in vivo, rat; conditions: UUO rats, GQ-5 40 mg/kg daily i.p., sacrificed day 14
Protocol: Male Sprague-Dawley rats were randomized into 4 groups (n=6 in each group): (1) sham operated rats; (2) UUO rats; (3) UUO+GQ-5 d1 rats; (4) UUO+GQ-5 d7 rats.
as §2, §5, §6
UUO was performed using an established protocol as described. GQ-5 was dissolved in 5% propylene glycol. Rats were administrated with GQ-5 as described before. All the rats were sacrificed 14 days after UUO. HE staining, Masson trichrome staining were performed to examine the renal tissue injury, and Real-time PCR analyses, immunohistochemical staining, and Western blot analyses were performed to examine α-SMA, collagen I and fibronectin expression in kidney tissue

p38 = experiment: Western blot of TGF-β1-induced p38 phosphorylation in vitro; type: cell-based, rat; conditions: NRK52E and NRK49F cells, GQ-5 2.5 nM pre-treated 1 h, TGF-β1 10 ng/ml 1 h
Protocol: (§7) NRK52E and NRK49F cells were cultured in DMEM-Ham's medium (Gibco, Life Techologies, NY, USA) supplemented with 10% fetal bovine serum (Gibco, Life Techologies, NY, USA). The cells reached at approximately 50% confluence were used for in vitro experiments. Cells were serum-starved for 12 h, and randomized into 4 groups: (1) Controls; (2) GQ-5 only; (3) TGF-β1 only; (4) TGF-β1+GQ-5
(§8) (2) GQ-5 only: pre-treated with GQ-5 (2.5 μM) for 1 h, followed with DMEM for 1 h
(§9) (3) TGF-β1 only: pre-treated with DMSO (0.1%) for 1 h, followed with TGF-β1 (10 ng/ml) for 1 h
(§10) (4) TGF-β1+GQ-5: pre-treated with GQ-5 (2.5 nM) for 1 h, followed with TGF-β1 (10 ng/ml) for 1 h
(§11) GQ-5 was dissolved in DMSO. Cells were treated as described. cell lysates were immunoblotted with antibodies against Smad4, Smad7, phospho-p38, p38, phospho-PI3K, PI3K, phosphor-ERK, and ERK.

Smad4 [5] = experiment: Western blot of Smad4 expression in vitro; type: cell-based, rat; conditions: NRK52E and NRK49F cells, GQ-5 2.5 nM pre-treated 1 h, TGF-β1 10 ng/ml 1 h
Protocol: as §7, §8, §9, §10, §11

Sequence of interaction of Smad3 with TβRI (P84025 whole entry): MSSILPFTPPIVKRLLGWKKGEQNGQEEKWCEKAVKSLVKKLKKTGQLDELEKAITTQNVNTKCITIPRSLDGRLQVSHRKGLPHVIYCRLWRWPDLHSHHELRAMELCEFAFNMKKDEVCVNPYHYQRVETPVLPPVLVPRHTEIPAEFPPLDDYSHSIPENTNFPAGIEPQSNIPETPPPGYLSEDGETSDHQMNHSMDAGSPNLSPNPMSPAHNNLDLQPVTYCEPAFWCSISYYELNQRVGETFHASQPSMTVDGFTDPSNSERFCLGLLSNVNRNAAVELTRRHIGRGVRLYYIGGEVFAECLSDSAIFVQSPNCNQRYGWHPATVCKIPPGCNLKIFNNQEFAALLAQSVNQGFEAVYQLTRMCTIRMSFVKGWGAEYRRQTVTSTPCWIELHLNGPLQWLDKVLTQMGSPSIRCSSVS

## CCCCCC/C=C\CCCCCCCc1cccc(O)c1O [GQ-5, 3-[(Z)-pentadec-8-enyl]catechol]
Smad4 [1]
  expression of Smad4: did not affect
Smad2 phosphorylation
  Smad2 phosphorylation in renal tissue: not Smad2
Collagen I [2]
  TGF-β1-induced protein expression of collagen I: significantly inhibited
[3]
  interaction of Smad3 with TβRI: significantly blocked
Collagen I [4]
  up-regulation of collagen I at both mRNA and protein level: significantly inhibited
p38
  TGF-β1-induced phosphorylation of p38: did not affect
Smad4 [5]
  protein expression of Smad4: did not affect
